Measured values reported in the PolyMetriX glass transition set.
± gives the standard deviation of the reports.

Row | SMILES | glass transition temperature
1 | *C(=O)Oc1ccc(C23CC4CC(CC(C4)C2)C3)c(OC(=O)c2ccc3c(c2)C(=O)N(c2ccc(-c4ccc(N5C(=O)c6ccc(*)cc6C5=O)cc4C)c(C)c2)C3=O)c1 (repeat unit) | 225.00 °C
2 | *CCCCCCOC(=O)C(=O)O* (repeat unit) | 66.50 °C
3 | *c1ccc(Sc2ccc(S(*)(=O)=O)cc2)cc1 (repeat unit) | 215.00 °C
4 | *OC(=O)C(CCSC)NC(=O)CCCCC(=O)NC(CCSC)C(=O)OC1COC2C(*)COC12 (repeat unit) | 71.00 °C
5 | *c1cccc(OCCCCCCCCCCCCOc2cccc(N3C(=O)c4ccc(-c5cccc6c5C(=O)N(*)C6=O)cc4C3=O)c2)c1 (repeat unit) | 116.00 °C
6 | *CC(*)OC(=O)C(F)(F)C(F)(F)F (repeat unit) | 42.00 °C
7 | *N(C)[Si](*)(C)C (repeat unit) | -20.00 °C
8 | *NNC(=O)c1ccc(C(*)=O)cc1OCC (repeat unit) | 240.00 °C
9 | *CC(*)OC(=O)c1cccnc1 (repeat unit) | 86.50 °C
10 | *Oc1ccc(C(c2ccc(OC(=O)OC3C(C)(C)C(OC(*)=O)C3(C)C)cc2)(C(F)(F)F)C(F)(F)F)cc1 (repeat unit) | 142.00 °C
11 | */C=C(/*)c1ccccc1[Si](C)(C)C (repeat unit) | 190.00 °C
12 | *c1c(C)cc(-c2cc(C)c(N3C(=O)c4ccc(Oc5c(C)cc(Cc6cc(C)c(Oc7ccc8c(c7)C(=O)N(*)C8=O)c(C)c6)cc5C)cc4C3=O)c(C)c2)cc1C (repeat unit) | 420.00 °C
13 | *O[Si](*)(C)CCCCCOc1ccc(/C=C/c2ccc(OC)cc2)cc1 (repeat unit) | 52.00 °C
14 | *C/C=C/C[Si](*)(C)CCCOc1ccc(-c2ccccc2)cc1 (repeat unit) | 10.00 °C
15 | *Oc1ccc(CC(NC(=O)CCc2ccc(OC(=O)CCCC(*)=O)cc2)C(=O)OCCCC)cc1 (repeat unit) | 56.00 °C
16 | *O[Si](C)(C)O[Si](C)(C)O[Si](C)(C)O[Si](C)(C)Oc1c(*)c2ccccc2c2ccccc12 (repeat unit) | -35.00 °C
17 | *CC(COC(C)C)O* (repeat unit) | -67.00 °C
18 | */C=C/C(COCc1ccccc1)C(*)COCc1ccccc1 (repeat unit) | -4.00 °C
19 | *CC(C)/C=C(/*)C (repeat unit) | 2.30 °C

Row | SMILES | glass transition temperature
20 | *CCCCCCCCCCOc1ccc(/C=C2\CCC/C(=C\c3ccc(O*)cc3)C2=O)cc1 (repeat unit) | 85.00 °C
21 | *Oc1ccc(CC(NC(=O)Cc2ccc(OC(=O)CCCCC(*)=O)cc2)C(=O)OCC)cc1 (repeat unit) | 63.00 °C
22 | *C(=O)c1ccc2c(c1)C(=O)N(c1cccc(OCCOCCOc3cccc(N4C(=O)c5ccc(*)cc5C4=O)c3)c1)C2=O (repeat unit) | 155.00 °C
23 | *O[Si](*)(C([2H])([2H])[2H])C([2H])([2H])[2H] (repeat unit) | -125.00 °C
24 | *c1ccc(OCCCCCCCCCCCOC(=O)c2cccc(C(=O)OCCCCCCCCCCCOc3cccc(-c4nnc(*)s4)c3)c2)cc1 (repeat unit) | 39.00 °C
25 | *Oc1ccc(OC(=O)c2ccc(C(*)=O)cc2)cc1CCC(C)CC (repeat unit) | 237.00 °C
26 | *CCCCCCCCCCCC(=O)N(*)C (repeat unit) | -29.00 °C
27 | *CCN(CCOC(=O)Nc1ccc(C)c(NC(=O)O*)c1)c1ccc(/N=N/c2ccc(-c3nc4ccccc4o3)cc2)cc1 (repeat unit) | 152.00 °C
28 | *Nc1cc(NC(=O)c2ccc(C(*)=O)cc2)cc(-c2nnc(-c3ccccn3)o2)c1 (repeat unit) | 230.00 °C
29 | *c1cn(*)c2ccccc12 (repeat unit) | 65.00 °C
30 | *CC(*)(C)OC (repeat unit) | 67.00 °C
31 | *c1ccc(OCCCCCCCCCCCOC(=O)CCCCC(=O)OCCCCCCCCCCCOc2ccc(-c3nnc(*)s3)cc2)cc1 (repeat unit) | 69.00 °C
32 | *CCCCCCCCCCOC(=O)O* (repeat unit) | -37.00 °C
33 | */C=C/CCCCCC* (repeat unit) | -78.00 °C
34 | *CCCCCCCCCCOC(=O)c1ccc(-c2ccc(C(=O)O*)cc2)cc1 (repeat unit) | 52.00 °C
35 | *c1ccc(-n2c(=O)c3cc4c(=O)n(*)c(=O)c4cc3c2=O)c(S(=O)(=O)[O][Na])c1 (repeat unit) | 227.00 °C
36 | *O[Si](C)(Oc1ccc(C(C)(C)c2ccc(*)cc2)cc1)c1ccccc1 (repeat unit) | 58.00 °C
37 | *c1ccc(Oc2ccc(N3C(=O)C4CCC(C5CCC6C(=O)N(*)C(=O)C6C5)CC4C3=O)cc2)cc1 (repeat unit) | 257.00 °C
38 | *c1cccc(S(=O)(=O)NCCCCNS(*)(=O)=O)c1 (repeat unit) | 82.00 °C

The remaining lines, values ahead:

Row | glass transition temperature | SMILES
39 | 314.00 °C | *c1ccc(Oc2ccc(S(=O)(=O)c3ccc(Oc4ccc(-c5c6c(c(*)c7ccccc57)C(=O)N(C)C6=O)cc4)cc3)cc2)cc1 (repeat unit)
40 | 253.00 °C | *c1ccc(Oc2ccc(C(c3ccc(Oc4ccc(-n5c(=O)c6cc7c(=O)n(*)c(=O)c7cc6c5=O)cc4C(F)(F)F)cc3)(C(F)(F)F)C(F)(F)F)cc2)c(C(F)(F)F)c1 (repeat unit)
41 | 436.00 °C | *c1ccc(C(c2ccccc2)(c2ccc(-n3c(=O)c4cc5c(=O)n(*)c(=O)c5cc4c3=O)cc2)C(F)(F)F)cc1 (repeat unit)
42 | 229.00 °C | *Oc1ccc(C2(c3ccc(Oc4ccc(C(=O)c5ccccc5-c5ccccc5C(=O)c5ccc(*)cc5)cc4)cc3)c3ccccc3-c3ccccc32)cc1 (repeat unit)
43 | 203.00 °C | *c1ccc(Oc2ccc(Oc3ccc(Oc4ccc(-c5nc(*)nc(-c6ccccc6)n5)cc4)cc3)cc2)cc1 (repeat unit)
44 | 140.00 °C | *c1ccc(Oc2ccc(C(=O)c3cccc(C(=O)c4ccc(Oc5ccc(-c6c7c(c(*)c8ccccc68)C(=O)N(CCCCCCCCCCCC)C7=O)cc5)cc4)c3)cc2)cc1 (repeat unit)
45 | 339.00 °C | *C(=O)Nc1cccc(NC(=O)c2ccc3c(c2)C(=O)N(c2cccc(N4C(=O)c5ccc(*)cc5C4=O)c2)C3=O)n1 (repeat unit)
46 | 177.00 °C | *Oc1ccc(NC(=O)c2ccc(Oc3ccc(C(C)(C)c4ccc(C(C)(C)c5ccc(Oc6ccc(C(=O)Nc7ccc(Oc8ccc(-c9ccc(*)cc9)cc8)cc7)cc6)cc5)cc4)cc3)cc2)cc1 (repeat unit)
47 | 245.00 °C | *c1ccc(Oc2ccc(C3(c4ccc(Oc5ccc(N6C(=O)c7ccc(Oc8ccc(C9(c%10ccc(Oc%11ccc%12c(c%11)C(=O)N(*)C%12=O)cc%10)CCC(c%10ccccc%10)CC9)cc8)cc7C6=O)cc5)cc4)CC4CCC3C4)cc2)cc1 (repeat unit)
48 | 350.00 °C | *CC(=O)Nc1ccc(C2(c3ccc(NC(=O)Cn4c(=O)c5cc6c(=O)n(*)c(=O)c6cc5c4=O)cc3)c3ccccc3-c3ccccc32)cc1 (repeat unit)
49 | 278.00 ± 14 °C | *c1ccc(Oc2ccc(Oc3ccc(N4C(=O)c5ccc(-c6ccc7c(c6)C(=O)N(*)C7=O)cc5C4=O)cc3)cc2)cc1 (repeat unit)
50 | 242.00 °C | *c1ccc(Oc2ccc(Oc3ccc(NC(=O)c4ccc(Oc5ccc6c(c5)C(=O)N(*)C6=O)cc4)cc3)cc2)cc1 (repeat unit)
51 | 167.00 °C | *Oc1ccc(-c2ccc(Oc3ccc(C(=O)c4ccc(*)cc4)cc3)cc2)cc1 (repeat unit)
52 | 255.00 °C | *Oc1ccc(S(=O)(=O)c2ccc3cc(S(=O)(=O)c4ccc(Oc5ccc(-c6ccc(*)cc6)cc5)cc4)ccc3c2)cc1 (repeat unit)
53 | 308.00 °C | *C(=O)c1ccc2c(c1)C(=O)N(c1cccc(C(=O)Nc3ccc(N4C(=O)c5ccc(*)cc5C4=O)cc3)c1)C2=O (repeat unit)
54 | 266.00 °C | *c1ccc2c(c1)C(=O)N(c1cccc(C(=O)Nc3ccc(Oc4ccc(C(c5ccc(Oc6ccc(NC(=O)c7cccc(N8C(=O)c9ccc(C(*)(C(F)(F)F)C(F)(F)F)cc9C8=O)c7)cc6)cc5)(C(F)(F)F)C(F)(F)F)cc4)cc3)c1)C2=O (repeat unit)
55 | 416.00 °C | *c1cccc(N2C(=O)c3c(c(-c4ccccc4)c(-c4ccc(-c5c(-c6ccccc6)c6c(c(-c7ccccc7)c5-c5ccccc5)C(=O)N(*)C6=O)cc4)c(-c4ccccc4)c3-c3ccccc3)C2=O)c1 (repeat unit)
56 | 283.00 °C | *Oc1ccc(OC(=O)c2ccc(OC(=O)c3ccc(C(=O)Oc4ccc(C(*)=O)cc4)cc3)cc2)cc1 (repeat unit)
57 | 246.00 °C | *c1ccc(C(C)(C)c2ccc(C(C)(C)c3ccc(N4C(=O)c5ccc(Oc6ccc7cc(Oc8ccc9c(c8)C(=O)N(*)C9=O)ccc7c6)cc5C4=O)cc3)cc2)cc1 (repeat unit)
58 | 313.00 °C | *c1ccc(OC(=O)c2cc(Cl)cc(C(=O)Oc3ccc(C4(*)OC(=O)c5ccccc54)cc3)c2)cc1 (repeat unit)
59 | 104.00 °C | *CCCCCC(=O)Oc1ccc(C(C)(C)c2ccc(C(C)(C)c3ccc(OC(=O)c4ccc5c(c4)C(=O)N(*)C5=O)cc3)cc2)cc1 (repeat unit)
60 | 289.50 °C | *c1ccc(C(=O)Nc2ccc(Oc3ccc(Oc4ccc(NC(=O)c5ccc(Oc6ccc(-c7nn(*)c(=O)c8ccccc78)c7ccccc67)cc5)cc4)cc3)cc2)cc1 (repeat unit)
61 | 308.00 °C | *c1ccc2c(c1)C(=O)N(c1ccc(Oc3c(C)cc(C(c4cc(C)c(Oc5ccc(N6C(=O)c7ccc(C(*)(C(F)(F)F)C(F)(F)F)cc7C6=O)cc5)c(C)c4)c4cccc5ccccc45)cc3C)cc1)C2=O (repeat unit)
62 | 177.00 °C | *c1ccc(Sc2ccc(Sc3ccc(Sc4ccc(Sc5ccc(N6C(=O)c7ccc(Sc8ccc(Sc9ccc(Sc%10ccc%11c(c%10)C(=O)N(*)C%11=O)cc9)cc8)cc7C6=O)cc5)s4)s3)s2)cc1 (repeat unit)
63 | 253.00 °C | *c1cccc(C(=O)Nc2ccc(Oc3cccc(Oc4ccc(NC(=O)c5cccc(N6C(=O)c7ccc(-c8cccc9c8C(=O)N(*)C9=O)cc7C6=O)c5)cc4)c3)cc2)c1 (repeat unit)
